Data published in patent US20250129078A1, “ERBB2 INHIBITORS” (Cogent Biosciences, Inc., priority 2023, published 2025).
Like-named read-outs stand apart in the source and are kept apart here.

Columns and labels:
ErbB2 V777L = ErbB2 V777L (Homo sapiens (Human), UniProt P04626, V777L); experiment: ErbB enzyme assay (CisBio HTRF-KinEASE-TK), ErbB2 V777L; type: biochemical
Method in brief: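 HTRF KinEASE-TK tyrosine-kinase read-out of substrate phosphorylation after a final 1 h at ambient temperature, from the 655/620 nm emission ratio.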

EGFR WT = EGFR WT (Homo sapiens (Human), UniProt P00533); experiment: ErbB enzyme assay (CisBio HTRF-KinEASE-TK), EGFR WT; type: biochemical; conditions: ATP at Km (25 μM), 1 h incubation
Method in brief: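 Tyrosine kinase HTRF, 1 h RT reaction → quench (Sa-XL665/TK-Ab-Cryptate) → 1 h RT → 655/620 ratio.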

Chain of ErbB2 V777L (P04626 23-1255 V777L): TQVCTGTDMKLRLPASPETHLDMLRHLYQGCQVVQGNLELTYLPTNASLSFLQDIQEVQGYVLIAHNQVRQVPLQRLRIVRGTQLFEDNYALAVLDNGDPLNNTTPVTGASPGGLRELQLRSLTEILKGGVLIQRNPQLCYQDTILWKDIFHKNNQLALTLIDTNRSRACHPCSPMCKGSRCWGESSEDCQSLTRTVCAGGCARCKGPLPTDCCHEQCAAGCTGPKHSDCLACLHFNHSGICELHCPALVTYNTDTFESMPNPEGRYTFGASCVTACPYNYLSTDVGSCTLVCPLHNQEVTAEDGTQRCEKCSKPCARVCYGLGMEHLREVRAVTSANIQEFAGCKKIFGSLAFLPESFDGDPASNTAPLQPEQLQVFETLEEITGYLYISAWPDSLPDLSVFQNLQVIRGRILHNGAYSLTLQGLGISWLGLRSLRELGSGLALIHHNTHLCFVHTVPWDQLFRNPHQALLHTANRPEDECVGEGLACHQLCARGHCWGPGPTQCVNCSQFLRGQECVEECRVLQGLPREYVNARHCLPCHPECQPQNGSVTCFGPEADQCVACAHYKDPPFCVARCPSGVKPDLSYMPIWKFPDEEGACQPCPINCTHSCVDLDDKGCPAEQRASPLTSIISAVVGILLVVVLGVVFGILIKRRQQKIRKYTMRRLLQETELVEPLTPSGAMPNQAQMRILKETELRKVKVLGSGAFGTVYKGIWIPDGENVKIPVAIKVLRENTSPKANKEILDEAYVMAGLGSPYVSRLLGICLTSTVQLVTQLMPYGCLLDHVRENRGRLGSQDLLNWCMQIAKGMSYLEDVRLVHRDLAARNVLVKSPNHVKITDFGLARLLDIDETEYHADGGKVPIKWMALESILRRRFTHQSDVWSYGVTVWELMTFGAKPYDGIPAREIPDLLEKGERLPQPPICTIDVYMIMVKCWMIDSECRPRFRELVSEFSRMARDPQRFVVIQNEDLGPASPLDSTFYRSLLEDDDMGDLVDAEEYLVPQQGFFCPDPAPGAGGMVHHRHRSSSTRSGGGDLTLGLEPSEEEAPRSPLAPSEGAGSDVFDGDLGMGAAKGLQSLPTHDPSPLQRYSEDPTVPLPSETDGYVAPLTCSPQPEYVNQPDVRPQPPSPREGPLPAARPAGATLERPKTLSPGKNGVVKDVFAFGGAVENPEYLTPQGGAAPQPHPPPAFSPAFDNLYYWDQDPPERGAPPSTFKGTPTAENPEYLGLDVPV
Chain of EGFR WT (P00533 25-1210): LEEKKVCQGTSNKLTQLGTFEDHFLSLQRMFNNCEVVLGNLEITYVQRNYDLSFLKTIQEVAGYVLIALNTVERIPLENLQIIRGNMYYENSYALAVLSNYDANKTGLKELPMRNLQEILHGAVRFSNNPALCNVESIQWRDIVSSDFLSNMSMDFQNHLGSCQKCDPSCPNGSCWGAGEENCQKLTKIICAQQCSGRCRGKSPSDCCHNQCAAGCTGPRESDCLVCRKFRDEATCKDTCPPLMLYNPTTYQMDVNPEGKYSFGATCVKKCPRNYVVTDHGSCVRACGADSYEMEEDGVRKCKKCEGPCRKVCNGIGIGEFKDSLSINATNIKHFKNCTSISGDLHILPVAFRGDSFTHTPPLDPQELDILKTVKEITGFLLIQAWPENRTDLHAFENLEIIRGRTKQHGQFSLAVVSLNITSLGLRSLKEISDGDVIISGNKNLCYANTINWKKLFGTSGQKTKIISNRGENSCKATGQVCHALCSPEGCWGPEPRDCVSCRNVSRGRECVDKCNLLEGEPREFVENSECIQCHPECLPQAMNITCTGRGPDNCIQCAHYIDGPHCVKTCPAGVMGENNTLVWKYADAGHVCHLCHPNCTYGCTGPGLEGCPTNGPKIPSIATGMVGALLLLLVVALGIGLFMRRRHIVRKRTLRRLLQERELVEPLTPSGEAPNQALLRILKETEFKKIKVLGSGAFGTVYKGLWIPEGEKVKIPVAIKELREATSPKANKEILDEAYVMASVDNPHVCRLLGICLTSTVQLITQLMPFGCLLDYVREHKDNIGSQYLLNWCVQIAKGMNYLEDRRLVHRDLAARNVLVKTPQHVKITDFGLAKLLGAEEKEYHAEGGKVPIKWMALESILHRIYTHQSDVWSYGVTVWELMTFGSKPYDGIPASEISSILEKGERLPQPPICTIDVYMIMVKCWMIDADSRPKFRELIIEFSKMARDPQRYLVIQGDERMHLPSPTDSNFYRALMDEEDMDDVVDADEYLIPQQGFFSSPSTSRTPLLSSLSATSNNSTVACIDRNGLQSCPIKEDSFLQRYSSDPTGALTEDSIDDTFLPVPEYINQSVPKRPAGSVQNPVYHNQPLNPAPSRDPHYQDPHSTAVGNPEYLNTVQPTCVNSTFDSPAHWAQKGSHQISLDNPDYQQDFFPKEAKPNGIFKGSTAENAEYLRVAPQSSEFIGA

Q: Which results are given for `C=CC(=O)N1CCCC(c2ccc3ncnc(Nc4ccc(Oc5ccc6c(c5)nnn6C)c(C)c4)c3n2)C1` (stereo not shown) [Compound 398, 1-(3-(4-((3-methyl-4-((1-methyl-1H-benzo[d][1,2,3]triazol-5-yl)oxy)phenyl)amino)pyrido[3,2-d]pyrimidin-6-yl)piperidin-1-yl)prop-2-en-1-one]?
A: IC50 (ErbB2 V777L): 50 to 100 nM; IC50 (EGFR WT): 100 to 500 nM

Q: How did the IC50 (ErbB2 V777L) turn out when `C=CC(=O)N1CCN(c2ncc3ncnc(Nc4ccc(Oc5ccc6c(c5)nnn6C)c(C)c4)c3n2)C[C@@H]1C` [Compound 2, (S)-1-(2-methyl-4-(8-((3-methyl-4-((1-methyl-1H-benzo[d][1,2,3]triazol-5-yl)oxy)phenyl)amino)pyrimido[5,4-d]pyrimidin-2-y1)piperazin-1-yl)prop-2-en-1-one] was run?
A: 50 to 100 nM

Q: And the IC50 (EGFR WT)?
A: 100 to 500 nM

Q: What does the source list for `C=CC(=O)N1CCN(c2ncc3ncnc(Nc4ccc(Oc5ccc6c(c5)nnn6C)c(C)c4)c3n2)[C@@H](C)C1` [Compound 18, (S)-1-(3-methyl-4-(8-((3-methyl-4-((1-methyl-1H-benzo[d][1,2,3]triazol-5-yl)oxy)phenyl)amino)pyrimido[5,4-d]pyrimidin-2-yl)piperazin-1-yl)prop-2-en-1-one 2,2,2-trifluoroacetate]?
A: IC50 (ErbB2 V777L): 50 to 100 nM; IC50 (EGFR WT): 100 to 500 nM

Q: How did the IC50 (ErbB2 V777L) turn out when `C=CC(=O)N(C)CCOc1ncc2ncnc(Nc3ccc(Oc4ccc5c(c4)ncn5C)c(C)c3)c2n1` [Compound 384, N-methyl-N-(2-((8-((3-methyl-4-((1-methyl-1H-benzo[d]imidazol-5-yl)oxy)phenyl)amino)pyrimido[5,4-d]pyrimidin-2-yl)oxy)ethyl)acrylamide] was run?
A: 50 to 100 nM

Q: And the IC50 (EGFR WT)?
A: ≥ 1000 nM

Q: Which IC50 (ErbB2 V777L) does the source give for `C=CC(=O)N1CCN(c2ccc3ncnc(Nc4ccc(Oc5ccc6c(c5)nnn6C)c(C)c4)c3n2)CC[C@H]1C` [Compound 356, (R)-1-(7-methyl-4-(4-((3-methyl-4-((1-methyl-1H-benzo[d][1,2,3]triazol-5-yl)oxy)phenyl)amino)pyrido[3,2-d]pyrimidin-6-yl)-1,4-diazepan-1-yl)prop-2-en-1-one] here?
A: 500 to 1000 nM

Q: And the IC50 (EGFR WT)?
A: ≥ 1000 nM

Q: With `C=CC(=O)N[C@@H]1C[C@@H](F)CN(c2ccc3ncnc(Nc4ccc(Oc5ccc6c(c5)nnn6C)c(C)c4F)c3n2)C1` [Compound 295, N-((3R,5R)-5-fluoro-1-(4-((2-fluoro-3-methyl-4-((1-methyl-1H-benzo[d][1,2,3]triazol-5-yl)oxy)phenyl)amino)pyrido[3,2-d]pyrimidin-6-yl)piperidin-3-yl)acrylamide] as the molecule, how does the IC50 (ErbB2 V777L) read?
A: 100 to 500 nM

Q: What about the IC50 (EGFR WT) of the same molecule?
A: 100 to 500 nM

Q: How did the IC50 (ErbB2 V777L) turn out when `C=CC(=O)N1CC2CC(C1)N2c1ncc2ncnc(Nc3ccc(Oc4ccc5c(c4)nnn5C)c(C)c3)c2n1` [Compound 16, 1-(6-(8-((3-methyl-4-((1-methyl-1H-benzo[d][1,2,3]triazol-5-yl)oxy)phenyl)amino)pyrimido[5,4-d]pyrimidin-2-yl)-3,6-diazabicyclo[3.1.1]heptan-3-yl)prop-2-en-1-one] was run?
A: 100 to 500 nM

Q: What about the IC50 (EGFR WT) of the same molecule?
A: 100 to 500 nM

Q: With `C=CC(=O)N1CCN(c2ccc3ncnc(Nc4c(OC)cc(Oc5ccc6c(c5)nnn6C)c(C)c4F)c3n2)CC1` [Compound 251, 1-(4-(4-((2-fluoro-6-methoxy-3-methyl-4-((1-methyl-1H-benzo[d][1,2,3]triazol-5-yl)oxy)phenyl)amino)pyrido[3,2-d]pyrimidin-6-yl)piperazin-1-yl)prop-2-en-1-one] as the molecule, how does the IC50 (ErbB2 V777L) read?
A: 100 to 500 nM

Q: And the IC50 (EGFR WT)?
A: 100 to 500 nM

Q: For `C=CC(=O)N1CCN(c2ccc3ncnc(Nc4ccc(Oc5ccc6c(c5)nnn6C)c(C)c4F)c3n2)CC1(C)C` [Compound 275, 1-(4-(4-((2-fluoro-3-methyl-4-((1-methyl-1H-benzo[d][1,2,3]triazol-5-yl)oxy)phenyl)amino)pyrido[3,2-d]pyrimidin-6-yl)-2,2-dimethylpiperazin-1-yl)prop-2-en-1-one], which IC50 (ErbB2 V777L) is on record?
A: 100 to 500 nM

Q: And the IC50 (EGFR WT)?
A: 100 to 500 nM

Q: How did the IC50 (ErbB2 V777L) turn out when `C=CC(=O)NC1(C)CCN(c2ccc3ncnc(Nc4ccc(Oc5ccc6c(c5)nnn6C)c(C)c4F)c3n2)CC1` [Compound 273, N-(1-(4-((2-fluoro-3-methyl-4-((1-methyl-1H-benzo[d][1,2,3]triazol-5-yl)oxy)phenyl)amino)pyrido[3,2-d]pyrimidin-6-yl)-4-methylpiperidin-4-yl)acrylamide] was run?
A: 100 to 500 nM

Q: What about the IC50 (EGFR WT) of the same molecule?
A: 500 to 1000 nM

Q: `C=CC(=O)N1CCN(c2ncc3ncnc(Nc4cc(F)c(Oc5ccc6c(c5)nnn6C)cc4F)c3n2)CC1` [Compound 31, 1-(4-(8-((2,5-difluoro-4-((1-methyl-1H-benzo[d][1,2,3]triazol-5-yl)oxy)phenyl)amino)pyrimido[5,4-d]pyrimidin-2-yl)piperazin-1-yl)prop-2-en-1-one] was tested. Which IC50 (ErbB2 V777L) did it give?
A: 100 to 500 nM

Q: And the IC50 (EGFR WT)?
A: 100 to 500 nM

Q: How did the IC50 (ErbB2 V777L; ErbB2 V777L enzyme, ATP at Km (110 μM), 1 h incubation) turn out when `C=CC(=O)N1CCN(c2ccc3ncnc(Nc4cc(C)c(Oc5ccc6c(c5)nnn6C)cc4OC)c3n2)C[C@H]1C` [Compound 316, (R)-1-(4-(4-((2-methoxy-5-methyl-4-((1-methyl-1H-benzo[d][1,2,3]triazol-5-yl)oxy)phenyl)amino)pyrido[3,2-d]pyrimidin-6-y1)-2-methylpiperazin-1-yl)prop-2-en-1-one] was run?
A: 50 to 100 nM

Q: And the IC50 (EGFR WT)?
A: 100 to 500 nM

Q: What does the source list for `C=CC(=O)N(C)[C@H]1C[C@H](Oc2ncc3ncnc(Nc4ccc(Oc5cc(F)c6c(c5)ncn6C)c(C)c4)c3n2)C1` [Compound 386, N-((1r,3r)-3-((8-((4-((7-fluoro-1-methyl-1H-benzo[d]imidazol-5-yl)oxy)-3-methylphenyl)amino)pyrimido[5,4-d]pyrimidin-2-yl)oxy)cyclobutyl)-N-methylacrylamide]?
A: IC50 (ErbB2 V777L): 50 to 100 nM; IC50 (EGFR WT): 100 to 500 nM

Q: What does the source list for `C=CC(=O)N[C@H]1CN(c2ccc3ncnc(Nc4ccc(Oc5ccc6c(c5)nnn6C)c(C)c4)c3n2)CC(F)(F)C1` [Compound 342, (R)-N-(5,5-difluoro-1-(4-((3-methyl-4-((1-methyl-1H-benzo[d][1,2,3]triazol-5-yl)oxy)phenyl)amino)pyrido[3,2-d]pyrimidin-6-yl)piperidin-3-yl)acrylamide]?
A: IC50 (ErbB2 V777L): 100 to 500 nM; IC50 (EGFR WT): 500 to 1000 nM

Q: How did the IC50 (ErbB2 V777L) turn out when `C=CC(=O)NC1CCC(c2ccc3ncnc(Nc4ccc(Oc5ccc6c(c5)nnn6C)c(C)c4)c3n2)CC1` (stereo not shown) [Compound 400, N-(4-(4-((3-methyl-4-((1-methyl-1H-benzo[d][1,2,3]triazol-5-yl)oxy)phenyl)amino)pyrido[3,2-d]pyrimidin-6-yl)cyclohexyl)acrylamide] was run?
A: 100 to 500 nM

Q: And the IC50 (EGFR WT)?
A: 50 to 100 nM

Q: What does the source list for `C=CC(=O)N1C[C@H](N(C)c2ccc3ncnc(Nc4ccc(Oc5ccc6c(c5)nnn6C)c(C)c4)c3n2)C[C@H]1C` [Compound 266, 1-((2R,4R)-2-methyl-4-(methyl(4-((3-methyl-4-((1-methyl-1H-benzo[d][1,2,3]triazol-5-yl)oxy)phenyl)amino)pyrido[3,2-d]pyrimidin-6-yl)amino)pyrrolidin-1-yl)prop-2-en-1-one]?
A: IC50 (ErbB2 V777L): 50 to 100 nM; IC50 (EGFR WT): 100 to 500 nM

Q: For `C=CC(=O)N1CCN(c2ncc3ncnc(Nc4ccc(Oc5ccc6c(c5)nnn6C)c(C)c4)c3n2)CC[C@@H]1C` [Compound 228, (S)-1-(7-methyl-4-(8-((3-methyl-4-((1-methyl-1H-benzo[d][1,2,3]triazol-5-yl)oxy)phenyl)amino)pyrimido[5,4-d]pyrimidin-2-yl)-1,4-diazepan-1-yl)prop-2-en-1-one], which IC50 (ErbB2 V777L) is on record?
A: 100 to 500 nM

Q: And the IC50 (EGFR WT)?
A: 500 to 1000 nM
